Experimental findings from ChEMBL document CHEMBL6078698, “Discovery of 6-Fluoro-5-{4-[(5-fluoro-2-methyl-3-oxo-3,4-dihydroquinoxalin-6-yl)methyl]piperazin-1-yl}-N-methylpyridine-2-carboxamide (AZD9574): A CNS-Penetrant, PARP1-Selective Inhibitor” (J Med Chem, 2024) are described below.

As usually defined, the IC50 is the midpoint of a concentration-inhibition curve. By solubility is commonly meant how much of the substance goes into solution per volume. A high value points to a readily soluble substance. As a reminder, the logD is lipophilicity at a set pH, counting ionised and neutral species. A word on the efflux ratio: it is a quotient of directional permeabilities that is used to spot active efflux.

Values after ≈ are worked out from the molar mass of the structure shown.

Sequence of Poly [ADP-ribose] polymerase 2 (Q9UGN5 whole entry): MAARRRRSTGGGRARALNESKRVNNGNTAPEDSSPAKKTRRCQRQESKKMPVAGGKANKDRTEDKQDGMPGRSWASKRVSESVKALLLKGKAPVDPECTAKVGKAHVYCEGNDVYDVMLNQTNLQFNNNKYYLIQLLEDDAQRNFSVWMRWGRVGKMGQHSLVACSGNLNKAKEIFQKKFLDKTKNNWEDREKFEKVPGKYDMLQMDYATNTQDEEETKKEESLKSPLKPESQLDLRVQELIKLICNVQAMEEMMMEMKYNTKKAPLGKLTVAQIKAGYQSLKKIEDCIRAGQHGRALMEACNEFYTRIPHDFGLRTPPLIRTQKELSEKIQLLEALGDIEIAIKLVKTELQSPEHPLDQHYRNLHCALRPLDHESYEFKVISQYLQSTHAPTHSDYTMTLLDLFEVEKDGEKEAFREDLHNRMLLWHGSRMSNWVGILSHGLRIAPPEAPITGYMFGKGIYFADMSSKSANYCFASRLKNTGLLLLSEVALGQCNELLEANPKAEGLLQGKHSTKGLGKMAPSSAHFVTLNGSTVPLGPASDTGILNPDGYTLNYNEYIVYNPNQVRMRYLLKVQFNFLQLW
Sequence of Voltage-gated inwardly rectifying potassium channel KCNH2 (Q12809 whole entry): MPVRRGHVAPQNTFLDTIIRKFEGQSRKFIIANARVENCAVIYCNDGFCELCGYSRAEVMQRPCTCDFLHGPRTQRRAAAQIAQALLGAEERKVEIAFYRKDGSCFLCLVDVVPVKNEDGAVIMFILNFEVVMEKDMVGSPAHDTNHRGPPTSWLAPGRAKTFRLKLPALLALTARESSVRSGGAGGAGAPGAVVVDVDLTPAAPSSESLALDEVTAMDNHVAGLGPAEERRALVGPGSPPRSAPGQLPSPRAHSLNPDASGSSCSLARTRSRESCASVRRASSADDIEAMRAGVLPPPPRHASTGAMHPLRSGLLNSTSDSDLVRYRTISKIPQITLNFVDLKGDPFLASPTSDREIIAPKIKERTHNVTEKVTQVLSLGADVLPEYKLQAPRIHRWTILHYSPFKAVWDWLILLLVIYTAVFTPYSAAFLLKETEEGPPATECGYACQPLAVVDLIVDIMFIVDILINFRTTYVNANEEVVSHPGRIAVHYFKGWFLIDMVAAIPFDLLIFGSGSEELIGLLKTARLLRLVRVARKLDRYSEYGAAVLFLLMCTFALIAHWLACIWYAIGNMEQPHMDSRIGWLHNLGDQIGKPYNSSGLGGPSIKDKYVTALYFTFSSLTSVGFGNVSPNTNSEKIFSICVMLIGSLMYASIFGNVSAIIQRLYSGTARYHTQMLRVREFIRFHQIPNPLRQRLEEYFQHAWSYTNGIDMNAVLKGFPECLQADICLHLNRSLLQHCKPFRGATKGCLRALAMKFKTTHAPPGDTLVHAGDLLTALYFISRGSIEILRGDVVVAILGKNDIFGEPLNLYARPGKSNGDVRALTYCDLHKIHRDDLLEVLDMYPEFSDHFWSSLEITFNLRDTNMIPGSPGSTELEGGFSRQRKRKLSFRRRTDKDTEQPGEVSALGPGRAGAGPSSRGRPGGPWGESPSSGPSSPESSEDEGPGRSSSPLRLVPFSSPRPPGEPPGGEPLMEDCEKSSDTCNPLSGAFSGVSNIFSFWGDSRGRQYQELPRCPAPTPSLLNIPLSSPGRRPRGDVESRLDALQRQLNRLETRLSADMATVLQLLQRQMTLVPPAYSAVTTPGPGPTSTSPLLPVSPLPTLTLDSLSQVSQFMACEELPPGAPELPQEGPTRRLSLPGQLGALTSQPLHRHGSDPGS

Tested on in one data set: not listed separately
Nature of the data set: Ratio of unbound drug concentration in brain to plasma of rat. Particulars: brain and plasma (unbound), read-out: K(p,uu,brain). The format is ADME, cell-free.
As to `CCc1nc2ccc(CN3CCN(c4cnc(F)cc4C)CC3)cc2[nH]c1=O`, the Kp uu was 0.2.
In the case of `CNC(=O)c1ccc(N2CCN(Cc3ccc4nc(C)c(=O)[nH]c4c3F)CC2)c(C)n1`, the Kp uu was determined as 0.19.
For the compound `NC(=O)c1cccc2cn(-c3ccc([C@@H]4CCCNC4)cc3)nc12` [NIRAPARIB], the Kp uu was less than 0.1.
Still for that read-out and setting: in the case of `O=C(c1cc(Cc2n[nH]c(=O)c3ccccc23)ccc1F)N1CCN(C(=O)C2CC2)CC1` [OLAPARIB] it was less than 0.1; in that of `C[C@]12CCCN1CC1=NNC(=O)c3cc(F)cc4[nH]c2c1c34` [PAMIPARIB], 0.1; in that of `CNCc1ccc(-c2[nH]c3cc(F)cc4c3c2CCNC4=O)cc1` [RUCAPARIB], less than 0.1.

The target of a further data set is Poly [ADP-ribose] polymerase 1 (Homo sapiens, UniProt P09874). Nature of the data set: Inhibition of N-terminal 6His-tagged full-length recombinant human PARP1 by fluorescence anisotropy assay.
Sequence of Poly [ADP-ribose] polymerase 1 (P09874 whole entry): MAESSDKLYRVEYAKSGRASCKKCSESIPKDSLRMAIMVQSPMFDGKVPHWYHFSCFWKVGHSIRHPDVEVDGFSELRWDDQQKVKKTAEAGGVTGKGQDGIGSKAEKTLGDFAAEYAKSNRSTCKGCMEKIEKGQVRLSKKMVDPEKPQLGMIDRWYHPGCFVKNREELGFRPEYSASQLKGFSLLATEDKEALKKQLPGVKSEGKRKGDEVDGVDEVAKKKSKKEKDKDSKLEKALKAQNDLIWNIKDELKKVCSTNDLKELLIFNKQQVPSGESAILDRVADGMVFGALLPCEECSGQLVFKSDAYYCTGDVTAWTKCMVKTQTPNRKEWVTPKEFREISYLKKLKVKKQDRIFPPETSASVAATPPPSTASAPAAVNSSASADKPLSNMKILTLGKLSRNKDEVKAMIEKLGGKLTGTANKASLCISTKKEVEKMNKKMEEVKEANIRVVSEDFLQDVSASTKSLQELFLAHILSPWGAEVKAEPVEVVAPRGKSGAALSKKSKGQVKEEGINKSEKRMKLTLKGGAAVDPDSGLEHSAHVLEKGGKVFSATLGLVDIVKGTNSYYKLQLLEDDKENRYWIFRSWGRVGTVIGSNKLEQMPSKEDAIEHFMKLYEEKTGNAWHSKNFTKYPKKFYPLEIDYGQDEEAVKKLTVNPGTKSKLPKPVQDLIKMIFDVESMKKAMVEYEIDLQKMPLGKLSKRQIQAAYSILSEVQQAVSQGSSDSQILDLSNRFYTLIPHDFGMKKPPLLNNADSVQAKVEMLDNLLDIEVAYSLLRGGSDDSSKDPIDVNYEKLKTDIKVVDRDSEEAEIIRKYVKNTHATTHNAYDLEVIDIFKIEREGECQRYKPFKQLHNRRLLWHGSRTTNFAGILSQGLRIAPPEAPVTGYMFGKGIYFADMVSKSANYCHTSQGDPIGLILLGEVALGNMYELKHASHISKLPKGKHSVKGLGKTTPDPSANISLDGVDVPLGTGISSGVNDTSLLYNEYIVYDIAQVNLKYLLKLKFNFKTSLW
Conditions: not given
(In fluorescence polarisation assays a small probe gives low polarisation when free and higher when bound to something large.)
For `CCc1nc2ccc(CN3CCN(c4cnc(F)cc4C)CC3)cc2[nH]c1=O`, the IC50 stood at 11 nM.

Tested on in another data set: not listed separately
Nature of the data set: Solubility of compound at pH 7.4. The format is physicochemical. Particulars: buffer.
The compound `CCc1nc2ccc(CN3CCN(c4cnc(F)cc4C)CC3)cc2[nH]c1=O` yielded a solubility of 9 µM (≈ 3.43 µg/mL).
Still for that read-out and setting: under `CNC(=O)c1ccc(N2CCN(Cc3ccc4nc(C)c(=O)[nH]c4c3F)CC2)c(C)n1` stands 11 µM (≈ 4.67 µg/mL).

Tested on in a further data set: not listed separately
Nature of the data set: Intrinsic clearance in human liver microsomes. As to conditions: read-out: CLH. The format is ADME, Microsome. (Microsomes from liver hold many membrane-bound enzymes, among them those of drug oxidation.)
In the case of `CCc1nc2ccc(CN3CCN(c4cnc(F)cc4C)CC3)cc2[nH]c1=O`, the microsomal CLint was 19 µL/min/mg.
Same read-out and setting: in the case of `CNC(=O)c1ccc(N2CCN(Cc3ccc4nc(C)c(=O)[nH]c4c3F)CC2)c(C)n1` it was less than 3 µL/min/mg.

Tested on in a further data set: not listed separately
Nature of the data set: Lipophilicity, log D of compound at pH 7.4. The format is physicochemical. As to conditions: buffer.
Consider `CCc1nc2ccc(CN3CCN(c4cnc(F)cc4C)CC3)cc2[nH]c1=O`, for which the log distribution coefficient (logD) stood at 3.3.
In turn, `CNC(=O)c1ccc(N2CCN(Cc3ccc4nc(C)c(=O)[nH]c4c3F)CC2)c(C)n1` showed a logD of 2.2.

Tested on in a further data set: not listed separately
Nature of the data set: Inhibition of cell proliferation of human DLD-1 cells expressing BRCA2-/- incubated for 7 days by Sytox green dye based analysis. The format is functional. Particulars: DLD-1, 168 h.
Compound `CCc1nc2ccc(CN3CCN(c4cnc(F)cc4C)CC3)cc2[nH]c1=O` displayed an IC50 of 13 nM.
On the same count and under the same terms, under `CNC(=O)c1ccc(N2CCN(Cc3ccc4nc(C)c(=O)[nH]c4c3F)CC2)c(C)n1` stands 7 nM; under `NC(=O)c1cccc2cn(-c3ccc([C@@H]4CCCNC4)cc3)nc12` [NIRAPARIB], 167 nM.
In turn, `C[C@]12CCCN1CC1=NNC(=O)c3cc(F)cc4[nH]c2c1c34` [PAMIPARIB] came in with an IC50 of 7 nM.
Same read-out and setting: under `CNCc1ccc(-c2[nH]c3cc(F)cc4c3c2CCNC4=O)cc1` [RUCAPARIB] stands 39 nM.

The next data set addresses Voltage-gated inwardly rectifying potassium channel KCNH2 (Homo sapiens, UniProt Q12809). Nature of the data set: (§1) Inhibition of hERG transfected in CHO cells by electrophysiology. The format is toxicity, cell-based.
Conditions: not given
Turning to `CCc1nc2ccc(CN3CCN(c4cnc(F)cc4C)CC3)cc2[nH]c1=O`, the IC50 was found to be 23000 nM.

For a further data set, the target named is hERG (KCNH2) (Homo sapiens, UniProt Q12809). The description is as §1. As to conditions: human, CHO cells transfected with hERG. The format is toxicity, cell-based. Background: hERG is a cardiac potassium channel; its block is linked to QT prolongation.
Sequence of hERG (KCNH2) (Q12809 whole entry): as the sequence (Q12809 whole entry) above
The compound `CNC(=O)c1ccc(N2CCN(Cc3ccc4nc(C)c(=O)[nH]c4c3F)CC2)c(C)n1` yielded a half-maximal inhibitory concentration (IC50) of more than 40000 nM.

A further data set concerns the target Poly [ADP-ribose] polymerase 2 (Homo sapiens, UniProt Q9UGN5). As to the kind of experiment: Inhibition of N-terminal 6His-tagged full-length recombinant human PARP2 by fluorescence anisotropy assay.
Conditions: not given
Consider `CCc1nc2ccc(CN3CCN(c4cnc(F)cc4C)CC3)cc2[nH]c1=O`, for which the IC50 was more than 67000 nM.
In the case of `C[C@]12CCCN1CC1=NNC(=O)c3cc(F)cc4[nH]c2c1c34` [PAMIPARIB], the concentration for half-maximal inhibition (IC50) amounted to 6 nM.

Another data set relates to MDR1 (P-gp), BCRP. As to the kind of experiment: Efflux ratio in MDCK-MDR1-BCRP cells. Particulars: dog. The format is ADME, cell-based, Canis lupus familiaris.
In the case of `CCc1nc2ccc(CN3CCN(c4cnc(F)cc4C)CC3)cc2[nH]c1=O`, the efflux ratio stood at 1.
Same read-out and setting: in the case of `CNC(=O)c1ccc(N2CCN(Cc3ccc4nc(C)c(=O)[nH]c4c3F)CC2)c(C)n1` it was 1.6.

The next data set concerns DLD-1. As to the kind of experiment: Antitumor activity against human DLD-1 cells expressing BRCA2-/- xenografted in athymic nude Foxn1nu mouse at 100 mg/kg administered once daily for 28 days relative to control. The format is functional. Particulars: DLD-1, 672 h, time 28 day, read-out: TGI.
In the case of `O=C(c1cc(Cc2n[nH]c(=O)c3ccccc23)ccc1F)N1CCN(C(=O)C2CC2)CC1` [OLAPARIB], the inhibition in vivo at 100 mg/kg was 40%.
